Measurements reported in ChEMBL document CHEMBL4177616, “Potent anti-melanogenic activity and favorable toxicity profile of selected 4-phenyl hydroxycoumarins in the zebrafish model and the computational molecular modeling studies” (Bioorg Med Chem, 2017).
The source made the active and inactive calls. The calls are words filed in the database; no cut-off is given here.

What was measured:
Melanocyte [1] = experiment: Cytotoxicity against wild type zebrafish embryo melanocytes assessed as barely visible cells at 12.5 ug/ml treated for 72 hrs post fertilization starting from 6 to 24 hrs post fertilization; assay type: cell-based, Danio rerio
Neutrophil = experiment: Cytotoxicity against mpx:GFP transgenic zebrafish 24 hrs post fertilization embryo neutrophils assessed as loss in neutrophil at 25 ug/ml relative to control; assay type: cell-based, Danio rerio
Danio rerio [2] = organism: Danio rerio; experiment: Toxicity in wild type zebrafish embryos assessed as blood circulation at 25 ug/ml treated for 96 hrs post fertilization starting from 6 hrs post fertilization by inverted microscopic analysis relative to control; assay type: organism-based; settings: in vivo
Danio rerio [3] = experiment: Toxicity in wild type zebrafish embryos assessed as yolk edema at 25 ug/ml treated for 96 hrs post fertilization starting from 6 hrs post fertilization by inverted microscopic analysis relative to control; assay type: organism-based; settings: in vivo
Danio rerio [4] = organism: Danio rerio; experiment: Toxicity in wild type zebrafish embryos assessed as growth retardation at 25 ug/ml treated for 96 hrs post fertilization starting from 6 hrs post fertilization by inverted microscopic analysis relative to control; assay type: organism-based; settings: in vivo
Danio rerio [5] = organism: Danio rerio; experiment: Toxicity in wild type zebrafish embryos assessed as notochord at 25 ug/ml treated for 96 hrs post fertilization starting from 6 hrs post fertilization by inverted microscopic analysis relative to control; assay type: organism-based; settings: in vivo
Danio rerio [6] = experiment: Toxicity in wild type zebrafish embryos assessed as pericardial edema at 25 ug/ml treated for 96 hrs post fertilization starting from 6 hrs post fertilization by inverted microscopic analysis relative to control; assay type: organism-based; settings: in vivo
Danio rerio [7] = organism: Danio rerio; experiment: Toxicity in wild type zebrafish embryos assessed as otoliths at 25 ug/ml treated for 96 hrs post fertilization starting from 6 hrs post fertilization by inverted microscopic analysis relative to control; assay type: organism-based; settings: in vivo
Danio rerio [8] = organism: Danio rerio; experiment: Toxicity in wild type zebrafish embryos assessed as head malformation at 25 ug/ml treated for 96 hrs post fertilization starting from 6 hrs post fertilization by inverted microscopic analysis relative to control; assay type: organism-based; settings: in vivo
Danio rerio [9] = organism: Danio rerio; experiment: Toxicity in wild type zebrafish embryos assessed as unhatched embryo at 25 ug/ml treated for 96 hrs post fertilization starting from 6 hrs post fertilization by inverted microscopic analysis relative to control; assay type: organism-based; settings: in vivo
Danio rerio [10] = organism: Danio rerio; experiment: Toxicity in wild type zebrafish embryos assessed as growth retardation at 5 ug/ml treated for 96 hrs post fertilization starting from 6 hrs post fertilization by inverted microscopic analysis relative to control; assay type: organism-based; settings: in vivo
Danio rerio [11] = organism: Danio rerio; experiment: Toxicity in wild type zebrafish embryos assessed as otoliths at 5 ug/ml treated for 96 hrs post fertilization starting from 6 hrs post fertilization by inverted microscopic analysis relative to control; assay type: organism-based; settings: in vivo
Danio rerio [12] = organism: Danio rerio; experiment: Toxicity in wild type zebrafish embryos assessed as teratogenic embryo at 5 ug/ml treated for 96 hrs post fertilization starting from 6 hrs post fertilization by inverted microscopic analysis relative to control; assay type: organism-based; settings: in vivo
Danio rerio [13] = organism: Danio rerio; experiment: Toxicity in wild type zebrafish embryos assessed as normal embryo at 10 ug/ml treated for 96 hrs post fertilization starting from 6 hrs post fertilization by inverted microscopic analysis relative to control; assay type: organism-based; settings: in vivo
Danio rerio [14] = organism: Danio rerio; experiment: Toxicity in wild type zebrafish embryos assessed as heart beat at 10 ug/ml treated for 96 hrs post fertilization starting from 6 hrs post fertilization by inverted microscopic analysis relative to control; assay type: organism-based; settings: in vivo
Danio rerio [15] = organism: Danio rerio; experiment: Toxicity in wild type zebrafish embryos assessed as growth retardation at 10 ug/ml treated for 96 hrs post fertilization starting from 6 hrs post fertilization by inverted microscopic analysis relative to control; assay type: organism-based; settings: in vivo
Danio rerio [16] = experiment: Toxicity in wild type zebrafish embryos assessed as yolk edema at 5 ug/ml treated for 96 hrs post fertilization starting from 6 hrs post fertilization by inverted microscopic analysis relative to control; assay type: organism-based; settings: in vivo
Danio rerio [17] = organism: Danio rerio; experiment: Anti-melanogenic activity in wild type zebrafish 24 hrs post fertilization embryos assessed as decrease in body pigmentation at 5 to 25 ug/ml after 48 hrs; assay type: functional, organism-based
Danio rerio [18] = experiment: Toxicity in wild type zebrafish embryos assessed as pericardial edema at 20 ug/ml treated for 96 hrs post fertilization starting from 6 hrs post fertilization by inverted microscopic analysis relative to control; assay type: organism-based; settings: in vivo
Danio rerio [19] = organism: Danio rerio; experiment: Toxicity in wild type zebrafish embryos assessed as notochord at 20 ug/ml treated for 96 hrs post fertilization starting from 6 hrs post fertilization by inverted microscopic analysis relative to control; assay type: organism-based; settings: in vivo
Danio rerio [20] = organism: Danio rerio; experiment: Toxicity in wild type zebrafish embryos assessed as otoliths at 20 ug/ml treated for 96 hrs post fertilization starting from 6 hrs post fertilization by inverted microscopic analysis relative to control; assay type: organism-based; settings: in vivo
Danio rerio [21] = organism: Danio rerio; experiment: Toxicity in wild type zebrafish embryos assessed as heart beat at 5 ug/ml treated for 96 hrs post fertilization starting from 6 hrs post fertilization by inverted microscopic analysis relative to control; assay type: organism-based; settings: in vivo
Danio rerio [22] = organism: Danio rerio; experiment: Toxicity in wild type zebrafish embryos assessed as skeletal deformities at 10 ug/ml treated for 96 hrs post fertilization starting from 6 hrs post fertilization by inverted microscopic analysis relative to control; assay type: organism-based; settings: in vivo
Danio rerio [23] = organism: Danio rerio; experiment: Toxicity in wild type zebrafish embryos assessed as blood circulation at 20 ug/ml treated for 96 hrs post fertilization starting from 6 hrs post fertilization by inverted microscopic analysis relative to control; assay type: organism-based; settings: in vivo
Danio rerio [24] = organism: Danio rerio; experiment: Toxicity in wild type zebrafish embryos assessed as normal embryo at 50 ug/ml treated for 96 hrs post fertilization starting from 6 hrs post fertilization by inverted microscopic analysis relative to control; assay type: organism-based; settings: in vivo
Danio rerio [25] = experiment: Toxicity in wild type zebrafish embryos assessed as yolk edema at 10 ug/ml treated for 96 hrs post fertilization starting from 6 hrs post fertilization by inverted microscopic analysis relative to control; assay type: organism-based; settings: in vivo
Danio rerio [26] = organism: Danio rerio; experiment: Toxicity in wild type zebrafish embryos assessed as eyes at 20 ug/ml treated for 96 hrs post fertilization starting from 6 hrs post fertilization by inverted microscopic analysis relative to control; assay type: organism-based; settings: in vivo
Danio rerio [27] = organism: Danio rerio; experiment: Toxicity in wild type zebrafish embryos assessed as unhatched embryo at 5 ug/ml treated for 96 hrs post fertilization starting from 6 hrs post fertilization by inverted microscopic analysis relative to control; assay type: organism-based; settings: in vivo
Melanocyte [28] = experiment: Cytotoxicity against wild type zebrafish embryo melanocytes assessed as change in morphology at to 25 ug/ml treated for 72 hrs post fertilization starting from 6 to 24 hrs post fertilization; assay type: cell-based, Danio rerio
Tyrosinase (Danio rerio) = target: T1, Tyrosinase (Danio rerio) (UniProt A0A8M1PAD4); experiment: Inhibition of zebrafish embryo tyrosinase assessed as residual activity at 5 ug/ml after 48 hrs relative to control
T1 sequence (whole entry): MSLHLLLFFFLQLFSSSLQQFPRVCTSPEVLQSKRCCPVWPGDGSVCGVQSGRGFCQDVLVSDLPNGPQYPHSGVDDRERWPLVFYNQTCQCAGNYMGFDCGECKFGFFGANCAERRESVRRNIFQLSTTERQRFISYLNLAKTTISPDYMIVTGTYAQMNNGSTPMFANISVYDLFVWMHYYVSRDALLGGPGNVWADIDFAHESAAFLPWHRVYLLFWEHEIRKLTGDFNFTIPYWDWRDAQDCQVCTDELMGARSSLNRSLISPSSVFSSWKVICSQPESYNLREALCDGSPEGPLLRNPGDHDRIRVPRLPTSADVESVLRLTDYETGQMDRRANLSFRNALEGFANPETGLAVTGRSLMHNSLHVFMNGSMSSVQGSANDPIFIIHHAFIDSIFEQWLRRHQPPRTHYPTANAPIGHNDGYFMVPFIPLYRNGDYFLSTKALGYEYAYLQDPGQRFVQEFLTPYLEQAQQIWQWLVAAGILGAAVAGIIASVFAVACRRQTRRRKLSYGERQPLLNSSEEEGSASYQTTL

Danio rerio [29] = experiment: Toxicity in wild type zebrafish embryos assessed as yolk edema at 15 ug/ml treated for 96 hrs post fertilization starting from 6 hrs post fertilization by inverted microscopic analysis relative to control; assay type: organism-based; settings: in vivo

SMILES	Activity (Melanocyte [1])	Activity (Neutrophil)	Activity (Danio rerio [2])	Activity (Danio rerio [3])	Activity (Danio rerio [4])	Activity (Danio rerio [5])	Activity (Danio rerio [6])	Activity (Danio rerio [7])	Activity (Danio rerio [8])	Activity (Danio rerio [9])	Activity (Danio rerio [10])	Activity (Danio rerio [11])	Activity (Danio rerio [12])	Activity (Danio rerio [13])	Activity (Danio rerio [14])	Activity (Danio rerio [15])	Activity (Danio rerio [16])	Activity (Danio rerio [17])	Activity (Danio rerio [18])	Activity (Danio rerio [19])	other results
O=c1cc(CO)occ1O [KOJIC ACID]	Non-Toxic	Non-Toxic	0%	0%	0%	0%	0%	0%	0%	0%	–	–	–	–	–	–	–	–	–	–	–
Oc1ccc(O)cc1 [HYDROQUINONE]	Non-Toxic	30%	100%	100%	100%	0%	100%	100%	–	100%	0%	0%	100%	0%	90%	80%	0%	Active	100%	0%	Activity (Danio rerio [20]): 100%; Activity (Danio rerio [21]): 0%; Activity (Danio rerio [22]): 90%; Activity (Danio rerio [23]): 100%; Activity (Danio rerio [24]): 0%; Activity (Danio rerio [25]): 0%; Activity (Danio rerio [26]): 100%; Activity (Danio rerio [27]): 0%
O=c1cc(-c2ccccc2)c2c(O)cc(O)cc2o1	Non-Toxic	Non-Toxic	0%	0%	0%	0%	0%	0%	0%	0%	0%	0%	0%	100%	0%	0%	0%	Active	0%	0%	Activity (Melanocyte [28]): Non-Toxic; Activity (Tyrosinase (Danio rerio)): 95%; Activity (Danio rerio [20]): 0%; Activity (Danio rerio [21]): 0%; Activity (Danio rerio [29]): 0%; Activity (Danio rerio [22]): 0%; Activity (Danio rerio [23]): 0%; Activity (Danio rerio [24]): 75%; Activity (Danio rerio [25]): 0%; Activity (Danio rerio [26]): 0%; Activity (Danio rerio [27]): 0%
O=c1cc(-c2ccccc2)c2ccc(O)cc2o1	Non-Toxic	Non-Toxic	0%	0%	0%	0%	0%	0%	0%	0%	0%	0%	0%	100%	0%	0%	0%	Active	0%	0%	Activity (Melanocyte [28]): Non-Toxic; Activity (Tyrosinase (Danio rerio)): 99%; Activity (Danio rerio [20]): 0%; Activity (Danio rerio [21]): 0%; Activity (Danio rerio [29]): 0%; Activity (Danio rerio [22]): 0%; Activity (Danio rerio [23]): 0%; Activity (Danio rerio [24]): 100%; Activity (Danio rerio [25]): 0%; Activity (Danio rerio [26]): 0%; Activity (Danio rerio [27]): 0%
